Assay results from ChEMBL document CHEMBL1201862, “PubChem BioAssay data set” (2004).
Calls of active or inactive are those of the source.

Legend:
[1] = molecular target: DNA (cytosine-5)-methyltransferase 1 (Homo sapiens, UniProt P26358); assay: inhibition of DNA methylation by DNMT1 – biochemical, fluorescent molecular beacon, confirmation (AID 602386); format: functional
Cytochrome P450 2C19 = Cytochrome P450 2C19 (Homo sapiens, UniProt P33261); assay: Cytochrome panel assay with activity outcomes. Panel member name: p450-cyp2c19 Compounds with AC50 equal or less than 10 uM are considered active; format: functional; settings: read-out: AC50
Cytochrome P450 2C19, sequence (P33261 whole entry): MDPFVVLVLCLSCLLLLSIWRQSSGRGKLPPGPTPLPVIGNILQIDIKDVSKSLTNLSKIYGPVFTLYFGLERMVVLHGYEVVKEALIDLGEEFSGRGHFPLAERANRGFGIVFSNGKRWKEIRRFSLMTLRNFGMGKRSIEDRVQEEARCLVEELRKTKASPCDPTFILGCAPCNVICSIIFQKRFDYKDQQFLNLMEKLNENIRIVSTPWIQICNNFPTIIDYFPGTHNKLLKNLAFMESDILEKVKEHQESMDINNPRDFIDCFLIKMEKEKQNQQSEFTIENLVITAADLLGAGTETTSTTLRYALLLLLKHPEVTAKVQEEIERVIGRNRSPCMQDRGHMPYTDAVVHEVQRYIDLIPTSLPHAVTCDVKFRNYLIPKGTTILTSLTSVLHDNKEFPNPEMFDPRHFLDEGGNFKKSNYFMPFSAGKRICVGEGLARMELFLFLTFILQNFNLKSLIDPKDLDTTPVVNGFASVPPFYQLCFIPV

[2] = molecular target: T1, Polyadenylate-binding protein 1 (Homo sapiens, UniProt P11940); assay: MLLE binding blockers, Cy5 peptide tracer – biochemical, fluorescence polarization, Cy5-PAM2 peptide, secondary, miRNA deadenylation inhibitor project, dose response (AID 602260); format: functional; settings: read-out: IC50_Mean
T1 sequence (P11940 whole entry, the tested form may be a part): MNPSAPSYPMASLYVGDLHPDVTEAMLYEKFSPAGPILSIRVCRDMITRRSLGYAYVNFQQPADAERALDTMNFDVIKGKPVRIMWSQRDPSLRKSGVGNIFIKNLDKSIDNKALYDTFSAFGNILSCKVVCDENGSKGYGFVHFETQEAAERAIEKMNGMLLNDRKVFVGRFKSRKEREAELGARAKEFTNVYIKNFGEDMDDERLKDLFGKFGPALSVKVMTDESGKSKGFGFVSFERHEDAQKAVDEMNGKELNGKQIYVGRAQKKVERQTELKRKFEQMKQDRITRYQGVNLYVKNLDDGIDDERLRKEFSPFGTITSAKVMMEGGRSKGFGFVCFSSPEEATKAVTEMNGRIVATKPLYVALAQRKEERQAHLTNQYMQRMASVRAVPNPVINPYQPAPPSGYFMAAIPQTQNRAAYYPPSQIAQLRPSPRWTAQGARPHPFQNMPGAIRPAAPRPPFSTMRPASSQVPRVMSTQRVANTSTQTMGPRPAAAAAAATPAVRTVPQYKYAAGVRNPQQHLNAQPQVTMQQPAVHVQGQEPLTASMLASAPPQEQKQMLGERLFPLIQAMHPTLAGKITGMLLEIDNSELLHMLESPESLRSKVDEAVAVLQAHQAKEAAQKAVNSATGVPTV

[3] = molecular target: T1, Polyadenylate-binding protein 1; assay: MLLE domain peptide-binding blockers, IC50 – biochemical, fluorescence polarization, FITC-PAM2 peptide, dose response (AID 602259); format: functional; settings: read-out: IC50_Mean
Escherichia coli = assay: microbe, parasite or virus in culture
Leucine aminopeptidase = molecular target: T2, Leucine aminopeptidase (Plasmodium falciparum 3D7, UniProt Q8IL11); assay: P. falciparum M17LAP inhibitors, primary screen, biochemical, fluorogenic H-Leu-NHMec substrate, 1536-well (AID 1619); format: functional
T2 sequence (Q8IL11 whole entry): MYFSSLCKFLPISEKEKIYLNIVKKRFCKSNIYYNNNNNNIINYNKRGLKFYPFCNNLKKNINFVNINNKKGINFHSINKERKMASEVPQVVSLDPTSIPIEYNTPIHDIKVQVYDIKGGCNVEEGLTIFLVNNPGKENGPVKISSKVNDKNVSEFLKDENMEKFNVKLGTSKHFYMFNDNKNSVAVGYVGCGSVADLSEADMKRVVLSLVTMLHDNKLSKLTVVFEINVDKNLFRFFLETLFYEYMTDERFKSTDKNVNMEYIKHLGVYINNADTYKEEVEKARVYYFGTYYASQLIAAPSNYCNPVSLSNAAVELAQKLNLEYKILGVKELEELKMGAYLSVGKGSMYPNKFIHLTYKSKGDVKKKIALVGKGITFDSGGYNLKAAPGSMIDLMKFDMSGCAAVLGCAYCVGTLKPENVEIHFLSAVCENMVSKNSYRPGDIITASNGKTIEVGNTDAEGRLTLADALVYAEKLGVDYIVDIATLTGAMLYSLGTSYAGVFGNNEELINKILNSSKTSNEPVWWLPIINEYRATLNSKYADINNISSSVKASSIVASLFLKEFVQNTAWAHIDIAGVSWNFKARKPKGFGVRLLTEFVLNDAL

Genome polyprotein = Genome polyprotein (dengue virus type 2, UniProt P29990); assay: flavivirus cap methylation enzyme inhibition – biochemical, confirmation dose response, primary screen (AID 588689); format: functional
Genome polyprotein, sequence (P29990 2492-3391 limits assumed): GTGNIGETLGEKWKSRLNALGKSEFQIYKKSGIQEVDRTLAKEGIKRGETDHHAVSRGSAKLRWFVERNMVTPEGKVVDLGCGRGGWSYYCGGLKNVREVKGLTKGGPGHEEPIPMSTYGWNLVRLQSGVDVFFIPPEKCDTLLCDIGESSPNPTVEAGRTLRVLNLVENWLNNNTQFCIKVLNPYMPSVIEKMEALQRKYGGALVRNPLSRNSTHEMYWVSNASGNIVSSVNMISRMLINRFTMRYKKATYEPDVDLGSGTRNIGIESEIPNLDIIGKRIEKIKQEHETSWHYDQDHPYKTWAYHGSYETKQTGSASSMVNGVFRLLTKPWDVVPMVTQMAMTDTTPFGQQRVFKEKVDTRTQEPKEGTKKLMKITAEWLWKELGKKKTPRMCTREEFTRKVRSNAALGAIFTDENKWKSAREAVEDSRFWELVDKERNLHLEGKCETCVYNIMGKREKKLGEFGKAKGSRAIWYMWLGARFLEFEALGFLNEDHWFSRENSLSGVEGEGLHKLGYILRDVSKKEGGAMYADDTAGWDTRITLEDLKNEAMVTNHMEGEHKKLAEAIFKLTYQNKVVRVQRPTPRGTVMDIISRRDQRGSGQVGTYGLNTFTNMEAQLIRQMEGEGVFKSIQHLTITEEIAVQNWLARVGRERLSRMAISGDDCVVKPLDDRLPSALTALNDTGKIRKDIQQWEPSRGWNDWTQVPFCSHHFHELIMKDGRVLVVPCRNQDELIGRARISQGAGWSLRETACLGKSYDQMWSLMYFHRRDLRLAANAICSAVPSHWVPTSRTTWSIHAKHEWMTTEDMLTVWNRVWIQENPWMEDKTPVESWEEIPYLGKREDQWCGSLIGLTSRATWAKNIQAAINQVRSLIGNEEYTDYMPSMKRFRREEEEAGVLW

[4] = reduction of Shn3 3'UTR-driven luciferase in osteoblasts – cell-based, Clone20 osteoblasts, firefly luciferase, cherry-picked, dose response (AID 624132); format: functional;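 note: firefly luciferase luminescence from reporter carrying the Shn3 3'UTR in osteoblasts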
[5] = loss of viability in HepG2 cells – cell-based, CellTiter-Glo, cherry-picked, cytotoxicity control for Shn3 inhibitor project, dose response (AID 624134); format: functional
[6] = non-specific 3'UTR reporter inhibition in Clone20-Shn3RL – cell-based, Renilla luciferase, cherry-picked, counter-screen for Shn3 inhibitor project, dose response (AID 624133); format: functional
[7] = luciferase reporter signal suppression in cells – H4 neuroglioma cells, luminescence, dose response (AID 1990); format: functional, cell-based
[8] = Luminescence Cell-Based Dose Response HTS to Identify Inhibitors of 5'UTR Stem-Loop Driven Prion Protein mRNA Translation in H4 Neuroglioblastoma Cells. [Related pubchem assays: 1827 (Project Summary), 1813 (Primary HTS)]; format: functional
[9] = alpha-synuclein stem-loop luciferase translation blockers – H4 neuroglioma cells, luminescence, confirmation (AID 1988); format: functional, cell-based
INS1 = assay: INS-1E survival protection against cytokine death – cell-based, luminescence, retest, dose response (AID 449756); format: functional; settings: Rattus norvegicus;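 note: cell death triggered by IL-1 beta plus TNF-alpha plus IFN-gamma mixture; protective hits raise ATP signal compared with cytokine alone wells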
[10] = molecular target: G-protein coupled receptor 55 (Homo sapiens, UniProt Q9Y2T6); assay: selective activators of receptor GPR55 – imaging, U2OS cells, beta-arrestin-GFP redistribution, primary screen (AID 1961); format: functional
G-protein coupled receptor 55, sequence (Q9Y2T6 whole entry): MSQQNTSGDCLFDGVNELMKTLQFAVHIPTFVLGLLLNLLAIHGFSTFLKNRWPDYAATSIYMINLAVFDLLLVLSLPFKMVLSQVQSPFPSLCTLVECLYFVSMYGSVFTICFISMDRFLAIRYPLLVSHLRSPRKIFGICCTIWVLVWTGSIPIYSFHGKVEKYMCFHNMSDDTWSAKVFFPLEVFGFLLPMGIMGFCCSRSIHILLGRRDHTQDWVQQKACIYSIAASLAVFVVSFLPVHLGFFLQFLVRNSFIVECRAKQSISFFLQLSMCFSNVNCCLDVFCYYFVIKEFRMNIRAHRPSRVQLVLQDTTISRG

[11] = molecular target: T3, Heat shock factor protein 1 (Mus musculus, UniProt P38532); assay: enhancement of HSF1-driven luciferase signal – cell-based, NIH3T3, luminescence, dose retest, confirmation (AID 435004); format: functional;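 note: stress induced by proteasome inhibitor MG132 added 30 min after compound; luciferase reporter driven by HSF1 response element in NIH3T3 cells; actives raise luminescence as potentiators of the MG132 stress response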
T3 sequence (P38532 whole entry): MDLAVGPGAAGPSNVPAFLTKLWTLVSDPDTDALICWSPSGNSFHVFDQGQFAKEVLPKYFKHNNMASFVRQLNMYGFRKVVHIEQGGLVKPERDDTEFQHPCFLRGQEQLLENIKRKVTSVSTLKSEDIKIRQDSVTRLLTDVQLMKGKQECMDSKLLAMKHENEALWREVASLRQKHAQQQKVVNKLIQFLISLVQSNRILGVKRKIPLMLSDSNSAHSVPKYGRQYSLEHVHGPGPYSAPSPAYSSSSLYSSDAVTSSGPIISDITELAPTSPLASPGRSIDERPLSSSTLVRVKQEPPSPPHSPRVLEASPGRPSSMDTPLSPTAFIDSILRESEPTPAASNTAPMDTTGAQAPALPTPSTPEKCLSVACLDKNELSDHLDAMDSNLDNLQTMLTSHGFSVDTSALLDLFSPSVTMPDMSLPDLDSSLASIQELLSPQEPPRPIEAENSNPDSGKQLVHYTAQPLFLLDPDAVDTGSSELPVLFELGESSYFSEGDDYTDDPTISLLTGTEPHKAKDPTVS

[12] = molecular target: T4, Replicative DNA helicase DnaB (Mycobacterium tuberculosis, UniProt P9WMR3); assay: DnaB intein splicing inhibitors, dose response, biochemical, cell-free fluorescence (AID 449749); format: functional
T4 sequence (P9WMR3 whole entry): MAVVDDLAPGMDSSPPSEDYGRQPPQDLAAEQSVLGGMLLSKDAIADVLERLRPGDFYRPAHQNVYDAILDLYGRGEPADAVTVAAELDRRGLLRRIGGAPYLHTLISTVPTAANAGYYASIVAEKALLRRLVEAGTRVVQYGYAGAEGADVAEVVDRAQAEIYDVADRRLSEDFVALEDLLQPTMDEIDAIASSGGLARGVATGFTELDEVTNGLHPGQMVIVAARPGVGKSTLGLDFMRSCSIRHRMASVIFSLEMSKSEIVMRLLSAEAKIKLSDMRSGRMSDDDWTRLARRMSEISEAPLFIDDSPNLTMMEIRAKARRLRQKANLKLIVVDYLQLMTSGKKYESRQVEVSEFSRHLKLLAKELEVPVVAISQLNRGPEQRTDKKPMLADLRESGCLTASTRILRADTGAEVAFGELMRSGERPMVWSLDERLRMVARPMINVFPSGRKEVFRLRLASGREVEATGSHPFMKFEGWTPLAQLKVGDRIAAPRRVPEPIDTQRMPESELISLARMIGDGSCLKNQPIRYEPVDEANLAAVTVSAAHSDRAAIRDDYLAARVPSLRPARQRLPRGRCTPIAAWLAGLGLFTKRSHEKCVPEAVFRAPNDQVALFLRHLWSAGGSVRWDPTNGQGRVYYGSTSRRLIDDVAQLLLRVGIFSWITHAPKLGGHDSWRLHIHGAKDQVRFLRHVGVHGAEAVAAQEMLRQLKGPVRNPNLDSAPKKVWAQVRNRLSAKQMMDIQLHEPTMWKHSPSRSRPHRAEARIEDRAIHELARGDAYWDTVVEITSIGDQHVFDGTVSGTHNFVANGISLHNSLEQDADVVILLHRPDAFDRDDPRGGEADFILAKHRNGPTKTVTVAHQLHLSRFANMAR

Protein RecA = molecular target: T5, Protein RecA (Mycobacterium tuberculosis, UniProt P9WHJ3); assay: Fluorescence Cell-Free Homogeneous Dose Retest to Identify Inhibitors of RecA-Intein Splicing Activity. [Related pubchem assays (depositor defined):AID2097, AID2223, AID489010, AID492950]; format: functional
T5 sequence (P9WHJ3 whole entry): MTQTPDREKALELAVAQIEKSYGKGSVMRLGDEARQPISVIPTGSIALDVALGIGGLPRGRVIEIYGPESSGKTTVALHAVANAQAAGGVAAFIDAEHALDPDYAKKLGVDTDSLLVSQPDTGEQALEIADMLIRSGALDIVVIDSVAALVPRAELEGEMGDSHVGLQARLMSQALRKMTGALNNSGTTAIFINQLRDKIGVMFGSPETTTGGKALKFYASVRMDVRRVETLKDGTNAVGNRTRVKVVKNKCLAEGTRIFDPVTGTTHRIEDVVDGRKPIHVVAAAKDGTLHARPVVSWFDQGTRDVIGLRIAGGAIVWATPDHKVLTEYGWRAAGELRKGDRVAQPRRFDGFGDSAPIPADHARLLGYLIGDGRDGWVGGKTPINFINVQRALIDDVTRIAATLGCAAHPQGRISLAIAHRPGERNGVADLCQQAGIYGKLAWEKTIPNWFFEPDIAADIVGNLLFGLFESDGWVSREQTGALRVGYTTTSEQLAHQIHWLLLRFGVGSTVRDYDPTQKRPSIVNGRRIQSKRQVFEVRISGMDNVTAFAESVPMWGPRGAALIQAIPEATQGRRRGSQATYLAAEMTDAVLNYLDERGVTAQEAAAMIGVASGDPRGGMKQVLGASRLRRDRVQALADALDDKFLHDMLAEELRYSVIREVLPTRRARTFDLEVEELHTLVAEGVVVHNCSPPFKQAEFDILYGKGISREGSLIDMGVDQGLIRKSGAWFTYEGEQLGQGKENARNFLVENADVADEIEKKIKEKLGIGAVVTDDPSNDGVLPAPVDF

DNA (cytosine-5)-methyltransferase 1, sequence (P26358 whole entry): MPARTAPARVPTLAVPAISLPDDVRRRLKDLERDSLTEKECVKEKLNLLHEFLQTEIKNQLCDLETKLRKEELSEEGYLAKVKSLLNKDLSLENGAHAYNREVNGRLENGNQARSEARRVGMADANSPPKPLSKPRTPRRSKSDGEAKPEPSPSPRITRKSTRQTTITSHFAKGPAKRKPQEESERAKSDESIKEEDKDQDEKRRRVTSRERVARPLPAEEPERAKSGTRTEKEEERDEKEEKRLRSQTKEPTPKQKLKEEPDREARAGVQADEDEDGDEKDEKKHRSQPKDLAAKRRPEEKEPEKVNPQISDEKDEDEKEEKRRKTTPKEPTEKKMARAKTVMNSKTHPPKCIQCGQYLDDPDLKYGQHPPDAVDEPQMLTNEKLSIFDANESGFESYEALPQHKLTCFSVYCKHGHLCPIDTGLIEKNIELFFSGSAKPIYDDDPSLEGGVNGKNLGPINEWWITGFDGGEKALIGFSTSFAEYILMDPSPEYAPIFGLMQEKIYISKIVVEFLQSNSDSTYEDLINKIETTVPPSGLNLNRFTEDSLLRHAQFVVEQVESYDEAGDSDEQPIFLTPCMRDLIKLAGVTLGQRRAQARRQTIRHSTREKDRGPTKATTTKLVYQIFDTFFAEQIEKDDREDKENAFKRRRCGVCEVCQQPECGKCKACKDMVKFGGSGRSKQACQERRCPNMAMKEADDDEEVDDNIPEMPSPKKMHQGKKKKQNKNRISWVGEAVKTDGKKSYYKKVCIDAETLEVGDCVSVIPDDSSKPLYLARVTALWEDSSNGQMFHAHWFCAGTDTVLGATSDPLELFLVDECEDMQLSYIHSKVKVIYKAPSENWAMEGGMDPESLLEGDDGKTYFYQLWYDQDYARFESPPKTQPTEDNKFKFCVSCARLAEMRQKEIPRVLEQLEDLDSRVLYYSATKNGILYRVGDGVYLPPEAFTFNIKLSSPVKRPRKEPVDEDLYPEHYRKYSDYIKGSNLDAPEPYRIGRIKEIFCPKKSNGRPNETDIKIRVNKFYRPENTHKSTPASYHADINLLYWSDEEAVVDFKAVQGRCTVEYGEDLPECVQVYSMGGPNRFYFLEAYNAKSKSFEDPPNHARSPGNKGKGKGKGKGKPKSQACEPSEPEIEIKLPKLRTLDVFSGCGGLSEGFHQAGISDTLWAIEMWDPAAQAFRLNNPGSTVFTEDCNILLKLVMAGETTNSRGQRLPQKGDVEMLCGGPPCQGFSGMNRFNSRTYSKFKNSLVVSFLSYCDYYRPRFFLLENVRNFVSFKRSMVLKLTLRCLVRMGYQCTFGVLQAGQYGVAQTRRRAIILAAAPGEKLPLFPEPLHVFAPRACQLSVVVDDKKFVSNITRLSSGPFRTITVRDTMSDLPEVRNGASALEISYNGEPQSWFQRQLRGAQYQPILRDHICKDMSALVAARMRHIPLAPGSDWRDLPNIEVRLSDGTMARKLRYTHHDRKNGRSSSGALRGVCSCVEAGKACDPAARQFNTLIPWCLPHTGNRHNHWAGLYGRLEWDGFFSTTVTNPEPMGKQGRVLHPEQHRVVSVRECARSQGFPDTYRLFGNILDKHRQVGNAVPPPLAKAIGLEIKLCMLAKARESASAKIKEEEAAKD

## CCOC(=O)c1nn(-c2ccc(F)cc2)c(=O)cc1OCC(=O)Nc1ccc(OCC)cc1
[1]
  IC50: > 99 µM (inactive)

## CCCCc1c(O)n(-c2ccccc2)c(SCCN(C)C)nc1=O
Cytochrome P450 2C19
  AC50: 6.31 µM (inconclusive)
[2]
  IC50: > 66 µM (inactive)
[3]
  IC50: > 66 µM (inactive)

## O=C(CCSc1nnc(-c2ccco2)o1)N1CCOCC1
Escherichia coli
  AC50: 119 µM (active)

## CCCCN(CCCC)C(=O)c1cn(CC)c2cc(N3CCN(C)CC3)c(F)cc2c1=O
Escherichia coli
  AC50: 1.67 µM (active)

## CCCCCCSc1nc(O)c(C2OC(=O)c3c2ccc(OC)c3OC)c(=O)n1-c1ccccc1 (stereo not drawn)
Leucine aminopeptidase
  IC50: 4.82 µM (active)
Genome polyprotein
  IC50: 30.2 µM (active)

## CC(C)(C)NC(=O)CSc1nc2ccc(NC(=O)CSc3nnnn3Cc3ccccc3)cc2s1
[4]
  AC50: 3.26 µM (active)
[5]
  AC50: 53 µM (active)
[6]
  AC50: 6.81 µM (active)

## CCOc1cc(C(=O)CSc2nnc(CNc3ccc(Cl)cc3)o2)ccc1NC(=O)CC
[7]
  EC50: > 120 µM (not active)
[8]
  EC50: 23 µM (active)
[9]
  EC50: 7.28 µM (active)
[4]
  AC50: 7.73 µM (active)
[5]
  AC50: 29.5 µM (active)
[6]
  AC50: 36.5 µM (active)

## COc1ccc(S(=O)(=O)CC(=O)c2cc3cccc(C)c3oc2=O)cc1
Genome polyprotein
  IC50: 78.1 µM (active)

## Cc1ccc(-n2ncc3c2CCCC3NC(=O)c2ocnc2C)cc1C (stereo not drawn)
INS1
  AC50: 3.69 µM (active)
[4]
  AC50: 1.29 µM (active)
[5]
  AC50: 0.594 µM (active)
[6]
  AC50: 3.35 µM (active)

## O=C(Nc1cccc(Cl)c1Cl)C1CC(=O)N(c2ccc(Br)cc2)C1 (stereo not drawn)
[4]
  AC50: 8.23 µM (active)
[5]
  AC50: 38.4 µM (active)
[6]
  AC50: 9.56 µM (active)

## CC(C)(CNC(=O)c1ccc(Cl)c(S(=O)(=O)N2CCc3ccccc3C2)c1)N1CCOCC1
[4]
  AC50: 10.5 µM (active)
[5]
  AC50: 2.14 µM (active)

## COc1ccc(CC(N)c2csc(NC(=O)Nc3ccc(C(C)C)cc3)n2)cc1 (stereo not drawn)
[4]
  AC50: 5.16 µM (active)
[5]
  AC50: 10.9 µM (active)
[6]
  AC50: 11.9 µM (active)

## O=C(CCc1nc(O)c2ccccc2n1)OCC(=O)c1cccc(Cl)c1
Escherichia coli
  AC50: 41.4 µM (active)

## COc1ccc(NC(=O)c2ccco2)cn1
[2]
  IC50: > 66 µM (inactive)
[3]
  IC50: 34.1 µM (inactive)

## COc1ccc2nc3cc(Cl)ccc3c(Nc3cc(C(C)C)c(O)cc3C)c2c1
[10]
  EC50: 1 µM (active)
[11]
  EC50: 154 µM (active)
[12]
  AC50: > 380 µM (inactive)
Protein RecA
  EC50: 0.318 µM (active)

## c1ccc(-n2c(SCC3CCCCO3)nnc2-c2cccs2)cc1 (stereo not drawn)
Escherichia coli
  AC50: 24.4 µM (active)

## O=C(O)CSC1CC(=O)N(c2ccc(Cl)c(Cl)c2)C1=O (stereo not drawn)
[2]
  IC50: > 66 µM (inactive)
[3]
  IC50: > 66 µM (inactive)

## Cc1[nH]n(-c2ccccc2)c(=O)c1C(c1cccc([N+](=O)[O-])c1)c1c(C)[nH]n(-c2ccccc2)c1=O
[12]
  AC50: 3.28 µM (active)
Protein RecA
  EC50: 0.805 µM (active)
Genome polyprotein
  IC50: 52.9 µM (active)
